Test results reported in patent US6255314A, “Cancerous metastasis inhibitors containing uracil derivatives” (Taiho Charmaceutical Co., Ltd., priority 1996, dated 2001).
Counter-ions that a name gives are not always drawn. Like-named read-outs stand apart in the source and are kept apart here. Blank lines part the entries; values can stand above or below the compound they belong to.

What was measured:
[1] = target: T1, thymidine phosphorylase obtained from human placenta (Homo sapiens, UniProt P19971); assay: Test 1 (Thymidine Phosphorylase Inhibiting Effects); type: biochemical
T1 construct: thymidine phosphorylase obtained from human placenta in a highly purified form; from tissue; host or cells: human placenta
T1 sequence (P19971 11-482): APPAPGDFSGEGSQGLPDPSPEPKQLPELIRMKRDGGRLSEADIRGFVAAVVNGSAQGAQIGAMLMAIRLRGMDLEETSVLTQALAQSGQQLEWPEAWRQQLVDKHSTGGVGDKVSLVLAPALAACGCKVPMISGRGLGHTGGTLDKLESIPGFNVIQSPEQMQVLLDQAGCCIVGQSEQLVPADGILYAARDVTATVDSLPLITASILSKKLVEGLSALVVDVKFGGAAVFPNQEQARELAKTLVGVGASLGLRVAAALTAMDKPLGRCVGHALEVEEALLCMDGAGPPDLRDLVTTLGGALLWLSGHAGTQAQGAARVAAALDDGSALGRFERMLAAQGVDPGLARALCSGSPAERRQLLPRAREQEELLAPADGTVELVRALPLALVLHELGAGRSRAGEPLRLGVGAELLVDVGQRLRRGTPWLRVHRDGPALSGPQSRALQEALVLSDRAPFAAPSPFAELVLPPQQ

[2] = test system: TMK-1 (human gastric cancer) cells; assay: Test 2 (Effects of Life Prolongation on Liver Metastasis Model); type: in vivo, BALB/c-nu/nu male mice; human gastric cancer cells; details: oral, everyday for 42 days; for Average # of survival time: control 63.4 days; for ILS (%) (increase of life span): vs control, 120 days observation
Description: Effects of life prolongation were assessed using a liver metastasis model system consisting of BALB/c-nu/nu male mice (seven weeks old) each of which had been transplanted in the spleen thereof with 1×10^6 cells/mouse of TMK-1 (human gastric cancer) cells.
Specific experimental procedures were carried out by modifying the method proposed by Morikawa et al. in Cancer Research, 48, 1943-1948 (1988). Described specifically, cells which had been cultured in vitro were collected with 0.25%(w/v) trypsin-0.2%(w/v) EDTA and were then washed with a physiological phosphate buffer. The cells were next counted, followed by dilution to 1×10^6 cells/50 μl. Under anesthetization with 30 mg/kg of "Nembutal", each of the mice was incised at its left abdominal region and the spleen was then pulled out. The cell suspension of 10^6 cells/50 μl which had been prepared above was injected in an amount of 50 μl into the spleen by a syringe fitted with a 28-gauge injection needle. After the mouse was left over for 2 minutes, the blood vessel to the spleen was tied at two positions by ligating clips, respectively, and the spleen was cut off. The excised abdominal region was closed with a suturing stapler. Compound No. 29 of the present invention, in a form dissolved in distilled water, was orally administered everyday for 42 days from the day following the transplant. Using the increase of life span (ILS%) of a control as a reference, an assessment was conducted by observing the mouse for 120 days after the transplant of the cells to confirm its survival. The increase of life span (ILS%) was calculated in accordance with the following formula. [formula]

[3] = test system: human colon cancer strain Co-3; assay: Test 3 (Metastasis Inhibiting Effects on Liver Metastasis Model); type: in vivo, SPF KSN-nu/nu male mouse; human colon cancer; details: oral; for Number of metastasized mice: 6 courses (5 days on, 2 days off), control 4/6; for Metastasis inhibition rate (%): liver metastasis, 6 courses, vs control
Description: About 100 mm^3 of human colon cancer strain Co-3 were transplanted to the cecum of each SPF KSN-nu/nu male mouse (seven weeks old). Two weeks after the transplant, a primary carcinoma lesion was removed by surgically cutting off the cecum. […] The administration was conducted for 6 courses, each consisting of administration of 5 straight days followed by a suspension of administration for 2 days. To mice in a control, only 0.5% (w/v) hydroxypropyl methylcellulose solution was orally administered. On the day following the completion of the administration, each mouse was sacrificed and metastasis to the liver was determined based on autopsy.

[4] = inhibition of [6-^3H]thymine formation from [6-^3H]thymidine, 37° C., 5 minutes, pH 7.4, read-out: IC50

Structure (SMILES): N=C1NCCN1Cc1[nH]c(=O)[nH]c(=O)c1Br [Compound 48, 5-bromo-6-(1-(2-iminoimidazolidinyl)methyl) uracil]
IC50 [1]: 0.03 µM

Structure (SMILES): O=c1[nH]c(CN2CCCC2)c(Br)c(=O)[nH]1 [Compound 2, 5-bromo-6-(1-pyrrolidinylmethyl)uracil]
IC50 [1, 4]: 0.51 µM

Structure (SMILES): N=C1CCCN1Cc1[nH]c(=O)[nH]c(=O)c1Cl [Compound 29, 5-chloro-6-(1-(2-iminopyrrolidinyl)-methyl)uracil hydrochloride]
Average # of survival time ([2]; 50 mg/kg/day, N = 8): 88.5 days | ILS (%) (increase of life span) ([2]; 50 mg/kg/day): 39.6% | Average # of survival time ([2]; 100 mg/kg/day, N = 9): 90.8 days | ILS (%) (increase of life span) ([2]; 100 mg/kg/day): 43.2% | Number of metastasized mice ([3]; 18.4 mg/kg/day): 2/6 | Number of metastasized mice ([3]; 36.9 mg/kg/day): 1/6 | Metastasis inhibition rate (%) ([3]; 18.4 mg/kg/day): 50% | Metastasis inhibition rate (%) ([3]; 36.9 mg/kg/day): 75%

Structure (SMILES): Cn1ccn(Cc2[nH]c(=O)[nH]c(=O)c2Cl)c1=N [Compound 20]
IC50 [1]: 0.24 µM

Structure (SMILES): N#Cc1c(CN2CCCC2=N)[nH]c(=O)[nH]c1=O [Compound 33, 5-cyano-6-(1-(2-iminopyrrolidinyl)methyl)uracil]
IC50 [1]: 0.017 µM

Structure (SMILES): O=c1[nH]c(CN2CCCC2)c(Cl)c(=O)[nH]1 [Compound 1, 5-chloro-6-(1-pyrrolidinylmethyl)uracil]
IC50 [1, 4]: 2.2 µM

Structure (SMILES): Cc1c(CN2CCCC2=N)[nH]c(=O)[nH]c1=O [Compound 32]
IC50 [1]: 0.12 µM

Structure (SMILES): CN1CCN(Cc2[nH]c(=O)[nH]c(=O)c2Cl)C1=N [Compound 34]
IC50 [1]: 0.046 µM

Structure (SMILES): O=c1[nH]c(CN2CCCC2)c(I)c(=O)[nH]1 [Compound 3]
IC50 [1, 4]: 1.3 µM

The remaining lines, values ahead:

IC50 [1, 4]: 0.1 µM
Structure (SMILES): N#Cc1c(CSC(=N)N)[nH]c(=O)[nH]c1=O [Compound 56, 2-(5-cyanouracil-6-ylmethyl)isothiourea hydrochloride]

IC50 [1, 4]: 1 µM
Structure (SMILES): O=c1[nH]c(Cn2ccnc2)c(Cl)c(=O)[nH]1 [Compound 51, 5-chloro-6-(1-imidazolylmethyl)uracil hydrochloride]

IC50 [1, 4]: 0.15 µM
Structure (SMILES): CNC(=N)SCc1[nH]c(=O)[nH]c(=O)c1Cl [Compound 57]

IC50 [1, 4]: 1.2 µM
Structure (SMILES): O=c1[nH]c(CN2C=NCC2)c(Cl)c(=O)[nH]1 [Compound 50, 5-chloro-6-(2-imidazolin-1-ylmethyl)-uracil hydrochloride]

IC50 [1, 4]: 2.6 µM
Structure (SMILES): O=c1[nH]c(CN2CCC2)c(Cl)c(=O)[nH]1 [Compound 6, 5-chloro-6-(1-azetidinylmethyl)uracil]

IC50 [1, 4]: 130 µM
Structure (SMILES): N#Cc1ccc(O)[nH]c1=O [3-Cyano-2,6-dihydroxypyridine, reference compound]

IC50 [1, 4]: 0.27 µM
Structure (SMILES): N=C(N)NCc1[nH]c(=O)[nH]c(=O)c1Cl [Compound 68, 5-chloro-6-(1-guanidino)methyluracil hydrochloride]

IC50 [1, 4]: > 1000 µM
Structure (SMILES): Cc1cn(COCCO)c(=O)[nH]c1=O [Acyclothymidine, reference compound]

IC50 [1, 4]: 1.5 µM
Structure (SMILES): CC(=N)NCc1[nH]c(=O)[nH]c(=O)c1Cl [Compound 73, N-(5-chlorouracil-6-ylmethyl)-acetamidine hydrochloride]
